# Experiments:
# Recombinant Btk = Recombinant Btk (Homo sapiens, UniProt Q06187); assay: Btk Kinase Assay (TR-FRET)
# [1] = target: T1, phosphorylated Btk at Tyr223 in Ramos cells (Homo sapiens, UniProt Q06187); assay: Btk pY223 Cellular Assay (HTRF, Ramos cells); format: cell-based; details: 1 hour compound incubation, stimulated with pervanadate or Na3VO4, read-out: 1050 (nM) Btk pY223
# T1 construct: determine the endogenous levels of phosphorylated Btk at Tyr223; endogenous in cells; host or cells: Ramos cells (CRL-1596, ATCC)
# T1 sequence (Q06187 whole entry): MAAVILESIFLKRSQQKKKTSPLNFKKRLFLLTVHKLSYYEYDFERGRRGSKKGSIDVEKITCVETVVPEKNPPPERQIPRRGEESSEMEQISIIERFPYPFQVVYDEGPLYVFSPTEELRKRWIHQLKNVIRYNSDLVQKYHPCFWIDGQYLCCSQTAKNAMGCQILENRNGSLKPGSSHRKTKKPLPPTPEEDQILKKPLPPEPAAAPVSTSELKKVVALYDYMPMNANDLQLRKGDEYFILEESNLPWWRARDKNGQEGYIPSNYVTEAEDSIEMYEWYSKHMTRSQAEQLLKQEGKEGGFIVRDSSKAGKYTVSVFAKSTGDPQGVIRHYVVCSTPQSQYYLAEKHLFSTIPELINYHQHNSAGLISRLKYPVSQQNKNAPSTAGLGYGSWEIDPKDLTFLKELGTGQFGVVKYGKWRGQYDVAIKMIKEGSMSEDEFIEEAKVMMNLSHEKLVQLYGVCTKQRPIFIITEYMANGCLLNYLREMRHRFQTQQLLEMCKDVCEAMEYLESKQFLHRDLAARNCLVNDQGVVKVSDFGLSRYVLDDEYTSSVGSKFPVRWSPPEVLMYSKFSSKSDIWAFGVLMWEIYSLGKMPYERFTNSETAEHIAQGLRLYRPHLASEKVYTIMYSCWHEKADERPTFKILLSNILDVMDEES
# Description: Btk pY223 cellular assay is a HTRF based assay intended to determine the endogenous levels of phosphorylated Btk at Tyr223. Phosphorylated Tyr223 is necessary for full activation of Btk.
# Briefly, Ramos cells were serum starved in 0.5% FBS-containing RPMI1640 for 2 hours. Following starvation, the cells were incubated with compounds to be detected at various concentrations in a CO2 incubator for 1 hour. After incubation, cells were stimulated with 1 mM pervanadate (PV) or Na3VO4 (OV) for 20 min. Then, the cells were spinned down and lysed with 1× lysis buffer at RT for 10 min (4× lysis buffer supplied in the kit). During the incubation, 1× antibody mix was prepared by diluting anti-Btk-d2 and anti-pBtk-K in detection buffer (supplied in the kit). […] After that, 18 ul of cell lysate was transferred to the assay plate pre-loaded with antibody solution. After mixing gently and spinning briefly, the plate was sealed up and kept in dark at RT for 18 hours. The fluorescence emission was measured at two different wavelengths (665 nm and 620 nm) on a compatible HTRF reader (PHERAstar FS, BMG).
# Chain of Recombinant Btk (Q06187 whole entry): as above
IC50 (Recombinant Btk) [nM],IC50 [1] [nM],SMILES
22,,"N#CCC(=O)N1CCCC(n2nc(-c3ccc(Oc4ccccc4)cc3)c(C(N)=O)c2N)C1 (stereo not shown) [Compound I-9, 5-Amino-1-(1-(2-cyanoacetyl)piperidin-3-yl)-3-(4-phenoxyphenyl)-1H-pyrazole-4-carboxamide]"
210,,"C=CC(=O)Nc1ccc2c(N)c(C(N)=O)n(-c3ccc(Oc4ccccc4)cc3)c2c1 [II-8, 6-Acrylamido-3-amino-1-(4-phenoxyphenyl)-1H-indole-2-carboxamide]"
7.6,,"N#C/C=C/CN1CCCC(n2nc(-c3ccc(Oc4ccccc4)cc3)c(C(N)=O)c2N)C1 (stereo not shown) [Compound I-11, (E)-5-Amino-1-(1-(3-cyanoallyl)piperidin-3-yl)-3-(4-phenoxyphenyl)-1H-pyrazole-4-carboxamide]"
2.4,,"C=CC(=O)N1CCC[C@@H](n2nc(-c3ccc(OC(C)C)cc3)c(C(N)=O)c2N)C1 [Compound I-18, (R)-1-(1-Acryloylpiperidin-3-yl)-5-amino-3-(4-isopropoxyphenyl)-1H-pyrazole-4-carboxamide]"
2.5,42.6,"CC=CC(=O)N1CCCC(n2nc(-c3ccc(Oc4ccccc4)cc3)c(C(N)=O)c2N)C1 (stereo not shown) [Compound I-5, 5-Amino-1-(1-(but-2-enoyl)piperidin-3-yl)-3-(4-phenoxyphenyl)-1H-pyrazole-4-carboxamide]"
0.15,,"C=CC(=O)N1CC2(CC(n3nc(-c4ccc(Oc5ccccc5)cc4)c(C(N)=O)c3N)C2)C1 [Compound I-19, 1-(2-Acryloyl-2-azaspiro[3.3]heptan-6-yl)-5-amino-3-(4-phenoxyphenyl)-1H-pyrazole-4-carboxamide]"
480,,"C=CC(=O)NCCN1CCc2c(c(N)c(C(N)=O)n2-c2ccc(Oc3ccccc3)cc2)C1 [II-3, 5-(2-Acrylamidoethyl)-3-amino-1-(4-phenoxyphenyl)-4,5,6,7-tetrahydro-1H-pyrrolo[3,2-c]pyridine-2-carboxamide]"
2.7,,"C=CC(=O)N1CCCC(c2cn(-c3ccc(Oc4ccccc4)cc3)c(C(N)=O)c2N)C1 (stereo not shown) [II-10, 4-(1-Acryloylpiperidin-3-yl)-3-amino-1-(4-phenoxyphenyl)-1H-pyrrole-2-carboxamide]"
3.3,16.6,"C=CC(=O)N1CCc2c(c(N)c(C(N)=O)n2-c2ccc(Oc3ccccc3)cc2)C1 [II-1, 5-Acryloyl-3-amino-1-(4-phenoxyphenyl)-4,5,6,7-tetrahydro-1H-pyrrolo[3,2-c]pyridine-2-carboxamide]"
0.92,,"C=CC(=O)N1CCC[C@@H](n2nc(-c3ccc(OCC4CC4)cc3)c(C(N)=O)c2N)C1 [Compound I-17, (R)-1-(1-Acryloylpiperidin-3-yl)-5-amino-3-(4-(cyclopropylmethoxy)phenyl)-1H-pyrazole-4-carboxamide]"
18,,"CN(C)C(=O)/C=C/CN1CCCC(n2nc(-c3ccc(Oc4ccccc4)cc3)c(C(N)=O)c2N)C1 (stereo not shown) [Compound I-10, (E)-5-Amino-1-(1-(4-(dimethylamino)-4-oxobut-2-enyl)piperidin-3-yl)-3-(4-phenoxyphenyl)-1H-pyrazole-4-carboxamide]"
25,,"C=CC(=O)N1CCc2c(c(N)c(C(N)=O)n2-c2ccc(OCc3ccccc3)cc2)C1 [II-4, 5-Acryloyl-3-amino-1-(4-(benzyloxy)phenyl)-4,5,6,7-tetrahydro-1H-pyrrolo[3,2-c]pyridine-2-carboxamide]"
9,,"C=CC(=O)N1Cc2c(N)c(C(N)=O)n(-c3ccc(Oc4ccccc4)cc3)c2C1 [II-5, 5-Acryloyl-3-amino-1-(4-phenoxyphenyl)-1,4,5,6-tetrahydropyrrolo[3,4-b]pyrrole-2-carboxamide]"
14,,"CN1CC=C(C(=O)N2CCCC(n3nc(-c4ccc(Oc5ccccc5)cc4)c(C(N)=O)c3N)C2)CC1 (stereo not shown) [Compound I-7, 5-Amino-1-(1-(1-methyl-1,2,3,6-tetrahydropyridine-4-carbonyl)piperidin-3-yl)-3-(4-phenoxyphenyl)-1H-pyrazole-4-carboxamide]"
7600,,"NC(=O)c1c(N)c(C2CCNCC2)cn1-c1ccc(Oc2ccccc2)cc1 [II-9, 3-Amino-1-(4-phenoxyphenyl)-4-(piperidin-4-yl)-1H-pyrrole-2-carboxamide]"
0.21,7.5,"C#CC(=O)N1CCCC(n2nc(-c3ccc(Oc4ccccc4)cc3)c(C(N)=O)c2N)C1 (stereo not shown) [Compound I-13, 5-Amino-3-(4-phenoxyphenyl)-1-(1-propioloylpiperidin-3-yl)-1H-pyrazole-4-carboxamide]"
0.24,0.3,"C=CC(=O)N1CCC[C@@H](n2nc(-c3ccc(C)c(OC)c3)c(C(N)=O)c2N)C1 [Compound I-15, (R)-1-(1-Acryloylpiperidin-3-yl)-5-amino-3-(3-methoxy-4-methylphenyl)-1H-pyrazole-4-carboxamide]"
0.54,3.3,"C=CC(=O)N1CCC[C@@H](n2nc(-c3ccc(Cl)cc3)c(C(N)=O)c2N)C1 [Compound I-14, (R)-1-(1-Acryloylpiperidin-3-yl)-5-amino-3-(4-chlorophenyl)-1H-pyrazole-4-carboxamide]"
34,,"C=CC(=O)N1Cc2c(N)c(C(N)=O)n(-c3ccc(Oc4ccc(C(C)(C)C)cc4)cc3)c2C1 [II-6, 5-Acryloyl-3-amino-1-(4-(4-(tert-butyl)phenoxy)phenyl)-1,4,5,6-tetrahydropyrrolo[3,4-b]pyrrole-2-carboxamide]"
9.4,55.6,"C=CC(=O)Nc1ccc2c(c1)c(N)c(C(N)=O)n2-c1ccc(Oc2ccccc2)cc1 [II-7, 5-Acrylamido-3-amino-1-(4-phenoxyphenyl)-1H-indole-2-carboxamide]"
0.23,,"C=CS(=O)(=O)N1CCCC(n2nc(-c3ccc(Oc4ccccc4)cc3)c(C(N)=O)c2N)C1 (stereo not shown) [Compound I-8, 5-Amino-3-(4-phenoxyphenyl)-1-(1-(vinylsulfonyl)piperidin-3-yl)-1H-pyrazole-4-carboxamide]"
0.56,3.6,"CN(C)C/C=C/C(=O)N1CCCC(n2nc(-c3ccc(Oc4ccccc4)cc3)c(C(N)=O)c2N)C1 (stereo not shown) [Compound I-4, (E)-5-Amino-1-(1-(4-(dimethylamino)but-2-enoyl)piperidin-3-yl)-3-(4-phenoxyphenyl)-1H-pyrazole-4-carboxamide]"
1.4,17.7,"C=CC(=O)N1CCC[C@@H](n2nc(-c3ccc(OC)cc3)c(C(N)=O)c2N)C1 [Compound I-16, (R)-1-(1-Acryloylpiperidin-3-yl)-5-amino-3-(4-methoxyphenyl)-1H-pyrazole-4-carboxamide]"
3200,,"C=CC(=O)N1CCC(N2CCc3c(c(N)c(C(N)=O)n3-c3ccc(Oc4ccccc4)cc3)C2)C1 (stereo not shown) [II-2, 5-(1-Acryloylpyrrolidin-3-yl)-3-amino-1-(4-phenoxyphenyl)-4,5,6,7-tetrahydro-1H-pyrrolo[3,2-c]pyridine-2-carboxamide]"
0.22,10.4,"NC(=O)c1c(-c2ccc(Oc3ccccc3)cc2)nn(C2CCCN(C(=O)CCl)C2)c1N (stereo not shown) [Compound I-6, 5-Amino-1-(1-(2-chloroacetyl)piperidin-3-yl)-3-(4-phenoxyphenyl)-1H-pyrazole-4-carboxamide]"
18,,"N#C/C=C\CN1CCCC(n2nc(-c3ccc(Oc4ccccc4)cc3)c(C(N)=O)c2N)C1 (stereo not shown) [Compound I-12, (Z)-5-Amino-1-(1-(3-cyanoallyl)piperidin-3-yl)-3-(4-phenoxyphenyl)-1H-pyrazole-4-carboxamide]"
0.18,,"C=CC(=O)N1CCC[C@@H](n2nc(-c3ccc(Cl)c(OC)c3)c(C(N)=O)c2N)C1 [Compound I-21, (R)-1-(1-Acryloylpiperidin-3-yl)-5-amino-3-(4-chloro-3-methoxyphenyl)-1H-pyrazole-4-carboxamide]"

SMILES,IC50 (Recombinant Btk) [nM],IC50 [1] [nM]
"C=CC(=O)N1CCC[C@@H](n2nc(-c3ccc(OCC(C)C)cc3)c(C(N)=O)c2N)C1 [Compound I-20, (R)-1-(1-Acryloylpiperidin-3-yl)-5-amino-3-(4-isobutoxyphenyl)-1H-pyrazole-4-carboxamide]",0.49,
